Results taken from patent publication US6737383B1, “Herbicidal oxadiazolidines” (priority 1999, dated 2004).

How the values were obtained:
crabgrass = test: Test B pre/postemergence crabgrass; assay type: in vivo, Digitaria sanguinalis
How it was run: (§1)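 Herbicidal effect was estimated by eye on a ten-point control scale after plants spent twelve to sixteen days in a greenhouse following soil or foliar treatment. Foliar sprays targeted plants at one to four leaves; all doses were formulated in a non-phytotoxic solvent with surfactant.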

blackgrass = test: Test B pre/postemergence blackgrass; assay type: in vivo, Alopecurus myosuroides
How it was run: as §1

pigweed = test: Test B pre/postemergence pigweed; assay type: in vivo, Amaranthus retroflexus
How it was run: as §1

duck salad = test: Test B flood test duck salad; assay type: in vivo, Heteranthera limosa
How it was run: (§2)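 Read-out is a visual response score from 0 (no effect) to 10 (complete control), assigned by comparison with untreated controls. Treatment was applied at the 2-leaf stage, and plants stayed in the greenhouse for twelve to sixteen days before scoring.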

morningglory = test: Test B pre/postemergence morningglory; assay type: in vivo, Ipomoea hederacea
How it was run: as §1

purple nutsedge = test: Test B pre/postemergence purple nutsedge; assay type: in vivo, Cyperus rotundus
How it was run: as §1

rice = test: Test B flood test rice; assay type: in vivo, Oryza sativa
How it was run: as §2

wheat = test: Test B pre/postemergence wheat; assay type: in vivo, Triticum aestivum
How it was run: as §1

wild oat = test: Test B pre/postemergence wild oat; assay type: in vivo, Avena fatua
How it was run: as §1

giant foxtail = test: Test B pre/postemergence giant foxtail; assay type: in vivo, Setaria faberii
How it was run: as §1

surinam grass = test: Test B pre/postemergence surinam grass; assay type: in vivo, Brachiaria decumbens
How it was run: as §1

bedstraw = test: Test B pre/postemergence bedstraw; assay type: in vivo, Galium aparine
How it was run: as §1

velvetleaf = test: Test B pre/postemergence velvetleaf; assay type: in vivo, Abutilon theophrasti
How it was run: as §1

smallflower flatsedge = test: Test B flood test smallflower flatsedge; assay type: in vivo, Cyperus difformis
How it was run: as §2

soybean = test: Test B pre/postemergence soybean; assay type: in vivo, Glycine max
How it was run: as §1

corn = test: Test B pre/postemergence corn; assay type: in vivo, Zea mays
How it was run: as §1

[1] = Preemergence, Rate 31 g/ha, visual rating, scale 0 to 10 (0 no effect, 10 complete control)
[2] = Preemergence, Rate 62 g/ha, scale of 0 to 10 where 0 is no effect and 10 is complete control
[3] = Preemergence, Rate 250 g/ha, scale of 0 to 10 where 0 is no effect and 10 is complete control
[4] = Preemergence, Rate 500 g/ha, scale of 0 to 10 where 0 is no effect and 10 is complete control
[5] = Rate 31 g/ha, Postemergence, scale 0 to 10
[6] = Rate 62 g/ha, Postemergence, scale of 0 to 10 where 0 is no effect and 10 is complete control
[7] = Rate 125 g/ha, Postemergence, scale 0 to 10
[8] = Rate 125 g/ha, Preemergence, scale of 0 to 10 where 0 is no effect and 10 is complete control
[9] = Rate 500 g/ha, Postemergence, scale 0 to 10, 0 no effect, 10 complete control
[10] = Rate 62 g/ha, headed Pre-emergence (flood test species), scale 0 to 10 (0 no effect, 10 complete control)
[11] = Rate 125 g/ha, Pre-emergence, flood test species, scale 0 to 10 where 0 is no effect and 10 is complete control
[12] = Rate 250 g/ha, Pre-emergence, flood-test species, scale 0 to 10, 0 is no effect, 10 is complete control
[13] = Rate 500 g/ha, Pre-emergence, flood test species, scale 0 to 10 (0 no effect, 10 complete control)

CC(C)N(C(=O)n1oc(=O)n(N(C)C)c1=O)c1ccccc1 [Compound 225]
Crabgrass plant response rating (crabgrass; [1]): 2 | Crabgrass plant response rating (crabgrass; [2]): 9 | Crabgrass plant response rating (crabgrass; [3]): 10 | Plant response rating, Crabgrass (crabgrass; [4]): 10 | Crabgrass plant response rating (crabgrass; [5]): 0 | Crabgrass plant response rating (crabgrass; [6]): 5 | Crabgrass plant response rating (crabgrass; [7]): 8 | Crabgrass plant response rating (crabgrass; [8]): 10 | Crabgrass plant response rating (crabgrass; [9]): 8 | Blackgrass plant response rating (blackgrass; [1]): 0 | Blackgrass plant response rating (blackgrass; [2]): 2 | Blackgrass plant response rating (blackgrass; [3]): 10 | Plant response rating, Blackgrass (blackgrass; [4]): 10 | Blackgrass plant response rating (blackgrass; [5]): 0 | Blackgrass plant response rating (blackgrass; [6]): 6 | Blackgrass plant response rating (blackgrass; [7]): 9 | Blackgrass plant response rating (blackgrass; [8]): 10 | Plant response rating (0 to 10; 0 is no effect, 10 is complete control), Blackgrass (blackgrass; Rate 250 g/ha, Postemergence): 9 | Blackgrass plant response rating (blackgrass; [9]): 8 | Redroot pigweed plant response rating (pigweed; [1]): 6 | Redroot pigweed plant response rating (pigweed; [2]): 6 | Redroot pigweed plant response rating (pigweed; [3]): 10 | Plant response rating, Redroot pigweed (pigweed; [4]): 10 | Redroot pigweed plant response rating (pigweed; [5]): 0 | Redroot pigweed plant response rating (pigweed; [6]): 0 | Redroot pigweed plant response rating (pigweed; [7]): 0 | Redroot pigweed plant response rating (pigweed; [8]): 7 | Plant response rating (0 to 10; 0 is no effect, 10 is complete control), Redroot pigweed (pigweed; Rate 250 g/ha, Postemergence): 0 | Redroot pigweed plant response rating (pigweed; [9]): 2 | Ducksalad plant response rating (duck salad; [10]): 0 | Ducksalad plant response rating (duck salad; [11]): 0 | Ducksalad plant response rating (duck salad; [12]): 0 | Ducksalad plant response rating (duck salad; [13]): 0 | Morningglory plant response rating (morningglory; [1]): 0 | Morningglory plant response rating (morningglory; [2]): 0 | Morningglory plant response rating (morningglory; [3]): 4 | Plant response rating, Morningglory (morningglory; [4]): 8 | Morningglory plant response rating (morningglory; [5]): 2 | Morningglory plant response rating (morningglory; [6]): 2 | Morningglory plant response rating (morningglory; [7]): 3 | Morningglory plant response rating (morningglory; [8]): 4 | Plant response rating (0 to 10; 0 is no effect, 10 is complete control), Morningglory (morningglory; Rate 250 g/ha, Postemergence): 6 | Morningglory plant response rating (morningglory; [9]): 6 | Nutsedge plant response rating (purple nutsedge; [1]): 0 | Nutsedge plant response rating (purple nutsedge; [2]): 7 | Nutsedge plant response rating (purple nutsedge; [3]): 8 | Plant response rating, Nutsedge (purple nutsedge; [4]): 10 | Nutsedge plant response rating (purple nutsedge; [5]): 0 | Nutsedge plant response rating (purple nutsedge; [6]): 0 | Nutsedge plant response rating (purple nutsedge; [7]): 0 | Nutsedge plant response rating (purple nutsedge; [8]): 7 | Plant response rating (0 to 10; 0 is no effect, 10 is complete control), Nutsedge (purple nutsedge; Rate 250 g/ha, Postemergence): 0 | Nutsedge plant response rating (purple nutsedge; [9]): 2 | Rice plant response rating (rice; [10]): 0 | Rice plant response rating (rice; [11]): 0 | Rice plant response rating (rice; [12]): 0 | Rice plant response rating (rice; [13]): 0 | Wheat plant response rating (wheat; [1]): 0 | Wheat plant response rating (wheat; [2]): 5 | Wheat plant response rating (wheat; [3]): 8 | Plant response rating, Wheat (wheat; [4]): 8 | Wheat plant response rating (wheat; [6]): 3 | Wheat plant response rating (wheat; [7]): 6 | Wheat plant response rating (wheat; [8]): 6 | Plant response rating (0 to 10; 0 is no effect, 10 is complete control), Wheat (wheat; Rate 250 g/ha, Postemergence): 7 | Wheat plant response rating (wheat; [9]): 8 | Wild oats plant response rating (wild oat; [1]): 0 | Wild oats plant response rating (wild oat; [2]): 4 | Wild oats plant response rating (wild oat; [3]): 10 | Plant response rating, Wild oats (wild oat; [4]): 10 | Wild oats plant response rating (wild oat; [6]): 0 | Wild oats plant response rating (wild oat; [7]): 2 | Wild oats plant response rating (wild oat; [8]): 7 | Plant response rating (0 to 10; 0 is no effect, 10 is complete control), Wild oats (wild oat; Rate 250 g/ha, Postemergence): 3 | Wild oats plant response rating (wild oat; [9]): 2 | Giant foxtail plant response rating (giant foxtail; [1]): 8 | Giant foxtail plant response rating (giant foxtail; [2]): 8 | Giant foxtail plant response rating (giant foxtail; [3]): 10 | Plant response rating, Giant foxtail (giant foxtail; [4]): 10 | Giant foxtail plant response rating (giant foxtail; [5]): 0 | Giant foxtail plant response rating (giant foxtail; [6]): 8 | Giant foxtail plant response rating (giant foxtail; [7]): 8 | Giant foxtail plant response rating (giant foxtail; [8]): 10 | Plant response rating (0 to 10; 0 is no effect, 10 is complete control), Giant foxtail (giant foxtail; Rate 250 g/ha, Postemergence): 8 | Giant foxtail plant response rating (giant foxtail; [9]): 9 | B. signalgrass plant response rating (surinam grass; [1]): 0 | B. signalgrass plant response rating (surinam grass; [2]): 1 | B. signalgrass plant response rating (surinam grass; Preemergence, Rate 250 g/ha, scale 0 to 10, 0 is no effect, 10 is complete control): 7 | Plant response rating, B. signalgrass (surinam grass; [4]): 7 | B. signalgrass plant response rating (surinam grass; [5]): 0 | B. signalgrass plant response rating (surinam grass; [6]): 2 | B. signalgrass plant response rating (surinam grass; Rate 125 g/ha, Postemergence, scale 0 (no effect) to 10 (complete control)): 5 | B. signalgrass plant response rating (surinam grass; [8]): 7 | Plant response rating (0 to 10; 0 is no effect, 10 is complete control), B. signalgrass (surinam grass; Rate 250 g/ha, Postemergence): 5 | B. signalgrass plant response rating (surinam grass; [9]): 9 | Bedstraw plant response rating (bedstraw; [2]): 0 | Bedstraw plant response rating (bedstraw; [3]): 0 | Plant response rating, Bedstraw (bedstraw; [4]): 2 | Bedstraw plant response rating (bedstraw; [6]): 0 | Bedstraw plant response rating (bedstraw; [7]): 0 | Bedstraw plant response rating (bedstraw; [8]): 0 | Plant response rating (0 to 10; 0 is no effect, 10 is complete control), Bedstraw (bedstraw; Rate 250 g/ha, Postemergence): 0 | Bedstraw plant response rating (bedstraw; [9]): 0 | Velvetleaf plant response rating (velvetleaf; [1]): 0 | Velvetleaf plant response rating (velvetleaf; [2]): 4 | Velvetleaf plant response rating (velvetleaf; [3]): 6 | Plant response rating, Velvetleaf (velvetleaf; [4]): 7 | Velvetleaf plant response rating (velvetleaf; [6]): 0 | Velvetleaf plant response rating (velvetleaf; [7]): 0 | Velvetleaf plant response rating (velvetleaf; [8]): 5 | Plant response rating (0 to 10; 0 is no effect, 10 is complete control), Velvetleaf (velvetleaf; Rate 250 g/ha, Postemergence): 0 | Velvetleaf plant response rating (velvetleaf; [9]): 3 | S. Flatsedge plant response rating (smallflower flatsedge; [10]): 0 | S. Flatsedge plant response rating (smallflower flatsedge; [11]): 0 | S. Flatsedge plant response rating (smallflower flatsedge; [12]): 0 | S. Flatsedge plant response rating (smallflower flatsedge; [13]): 0 | Soybean plant response rating (soybean; [1]): 0 | Soybean plant response rating (soybean; [2]): 0 | Soybean plant response rating (soybean; [3]): 3 | Plant response rating, Soybean (soybean; [4]): 6 | Soybean plant response rating (soybean; [6]): 2 | Soybean plant response rating (soybean; [7]): 3 | Soybean plant response rating (soybean; [8]): 2 | Plant response rating (0 to 10; 0 is no effect, 10 is complete control), Soybean (soybean; Rate 250 g/ha, Postemergence): 5 | Soybean plant response rating (soybean; [9]): 4 | Corn plant response rating (corn; [1]): 0 | Corn plant response rating (corn; [2]): 0 | Corn plant response rating (corn; [3]): 4 | Plant response rating, Corn (corn; [4]): 6 | Corn plant response rating (corn; [5]): 0 | Corn plant response rating (corn; [6]): 0 | Corn plant response rating (corn; [7]): 2 | Corn plant response rating (corn; [8]): 3 | Plant response rating (0 to 10; 0 is no effect, 10 is complete control), Corn (corn; Rate 250 g/ha, Postemergence): 2 | Corn plant response rating (corn; [9]): 6
